Laboratory results: paper PMC9973260, “Emergence of an Auxin Sensing Domain in Plant-Associated Bacteria” (mBio, 2023)

Tests used:
AdmX-LBD [1] = target: T1, AdmX-LBD (Serratia plymuthica, UniProt P0DV33, E213Q); assay: isothermal titration calorimetry; assay type: binding; conditions: read-out: dissociation constant
T1 construct: fast monomer-dimer equilibrium shifted toward dimer, dimer in crystal
T1 sequence (P0DV33 69-295 E213Q): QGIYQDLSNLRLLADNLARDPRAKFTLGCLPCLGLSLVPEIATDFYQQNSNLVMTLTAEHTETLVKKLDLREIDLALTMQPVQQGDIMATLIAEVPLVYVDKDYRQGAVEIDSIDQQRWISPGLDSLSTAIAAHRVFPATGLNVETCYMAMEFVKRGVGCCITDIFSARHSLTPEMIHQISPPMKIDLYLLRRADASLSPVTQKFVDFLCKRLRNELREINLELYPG

AdmX-LBD [2] = target: T2, AdmX-LBD (Serratia plymuthica, UniProt P0DV33, C100S); assay: isothermal titration calorimetry; assay type: binding; conditions: read-out: dissociation constant
T2 construct: fast monomer-dimer equilibrium shifted toward dimer, dimer in crystal
T2 sequence (P0DV33 69-295 C100S): T1 sequence (P0DV33 69-295 E213Q)

O=C(O)Cc1c[nH]c2ccccc12 [indole-3-acetic acid]
Kd (AdmX-LBD [1]): 23.9 ± 2.4 µM
Kd (AdmX-LBD [2]): 51 ± 3.4 µM

O=C(O)C(=O)Cc1c[nH]c2ccccc12 [indole-3-pyruvic acid]
Kd (AdmX-LBD [1]): 6 ± 0.7 µM
Kd (AdmX-LBD [2]): 31.5 ± 1.6 µM
